Measured values: patent publication US20260070945A1, “MACROCYCLIC IMMUNOMODULATORS” (Bristol-Myers Squibb Company, priority 2022, published 2026)
pIC50: −log10 of the molar value. Where a SMILES comes first, the peptide text is derived from it. Bridges are numbered along the chain shown (N, C = ends). [ ]: non-standard residue; d: D form. The star is where a group is joined. Phe(4-COOH) = N[C@@H](Cc1ccc(C(=O)O)cc1)C(=O)O; Bip = N[C@@H](Cc1ccc(-c2ccccc2)cc1)C(=O)O; Phe(3-Me) = Cc1cccc(C[C@H](N)C(=O)O)c1; NH(CH2)12COOH = O=C(O)CCCCCCCCCCCCN*; Val(3-OH) = CC(C)(O)[C@H](N)C(=O)O; 4Pal = N[C@@H](Cc1ccncc1)C(=O)O; Cha = N[C@@H](CC1CCCCC1)C(=O)O; Cit = NC(=O)NCCC[C@H](N)C(=O)O; Carboxymethyl = O=C(O)C*; NMeA = CN[C@@H](C)C(=O)O; Aun = NCCCCCCCCCCC(=O)O; Dab = NCC[C@H](N)C(=O)O; Dap = NC[C@H](N)C(=O)O; AEEA = NCCOCCOCC(=O)O; Propargyl = C#CC*

Target: T1, PD-1/PD-L1 interaction (PE-labeled human PD-L1-Ig binding to Jurkat cell line over-expressing human PD-1) (Homo sapiens, UniProt Q15116)
T1 construct: expressed in transfected cells; host or cells: Jurkat
T1 sequence (Q15116 25-288): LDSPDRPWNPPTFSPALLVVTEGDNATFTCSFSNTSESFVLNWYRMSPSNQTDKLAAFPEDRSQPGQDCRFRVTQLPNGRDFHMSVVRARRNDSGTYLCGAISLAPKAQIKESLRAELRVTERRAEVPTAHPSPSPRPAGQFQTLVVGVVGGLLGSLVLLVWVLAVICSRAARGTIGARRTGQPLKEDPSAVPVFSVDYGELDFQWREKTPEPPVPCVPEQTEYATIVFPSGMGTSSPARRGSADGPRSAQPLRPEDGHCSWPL
Assay: Jurkat-PD-1 Cell Binding High-Content Screening Assay (CBA)
Details: Jurkat-hPD-1 cells, PE-labeled PD-L1-Ig 20 nM final; read-out: Jurkat HPD1 PDL1 IC50
In short: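 Compound is added first to the PD-1-expressing Jurkat cells and held 2 h at 37 °C in serum-containing DMEM. The fluorescent PD-L1 fusion follows at 20 nM final for 1 h. Fixed, Hoechst-stained cells are then imaged for bound label.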

| Compound | pIC50 |
| --- | --- |
| CC(C)C[C@@H]1NC(=O)[C@H](Cc2c[nH]c3ccccc23)NC(=O)[C@H](CC(=O)O)NC(=O)[C@H](Cc2ccncc2)NC(=O)[C@H](Cc2ccc(OCC(=O)O)cc2)NC(=O)CSC[C@@H](C(=O)N[C@@H](CCCCN)C(=O)NCCOCCOCC(=O)NCCCCCCCCCCC(=O)O)NC(=O)[C@H](CO)NC(=O)[C@H](C(C)C)NC(=O)[C@H](CC2CCCCC2)NC(=O)[C@H](CCN)NC(=O)[C@@H](CC(C)C)NC(=O)[C@H](C)N(C)C(=O)[C@H](C(C)C)NC(=O)[C@H](Cc2ccc(-c3ccccc3)cc2)NC1=O [Example 1091] ({CH2CO}-Y(Carboxymethyl)[4Pal]DWL[Bip]V[NMeA][dL][Dab][Cha]VSCK[AEEA][Aun]-OH; thioether N-14) | 8.17 |
| CC(C)C[C@@H]1NC(=O)[C@H](Cc2c[nH]c3ccccc23)NC(=O)[C@H](CC(=O)O)NC(=O)[C@H](Cc2ccncc2)NC(=O)[C@H](Cc2ccc(OCC(=O)O)cc2)NC(=O)CSC[C@@H](C(=O)N[C@@H](CCCNC(=N)N)C(=O)NCCOCCOCC(=O)NCCCCCCCCCCC(=O)O)NC(=O)[C@H](CO)NC(=O)[C@H](C(C)C)NC(=O)[C@H](CC2CCCCC2)NC(=O)[C@H](CCN)NC(=O)[C@@H](CC(C)C)NC(=O)[C@H](C)N(C)C(=O)[C@H](C(C)C)NC(=O)[C@H](Cc2ccc(-c3ccccc3)cc2)NC1=O [Example 1092] ({CH2CO}-Y(Carboxymethyl)[4Pal]DWL[Bip]V[NMeA][dL][Dab][Cha]VSCR[AEEA][Aun]-OH; thioether N-14) | 7.95 |
| CC(C)C[C@@H]1NC(=O)[C@H](Cc2c[nH]c3ccccc23)NC(=O)[C@H](CC(=O)O)NC(=O)[C@H](Cc2ccc(C(=O)O)cc2)NC(=O)[C@H](Cc2ccc(OCC(=O)O)cc2)NC(=O)CSC[C@@H](C(=O)NCCOCCOCC(=O)NCCCCCCCCCCC(=O)O)NC(=O)[C@H](CN)NC(=O)[C@H](C(C)C)NC(=O)[C@H](CC2CCCCC2)NC(=O)[C@H](CCN)NC(=O)[C@@H](CC(C)C)NC(=O)[C@H](C)N(C)C(=O)[C@H](C(C)C)NC(=O)[C@H](Cc2ccc(-c3ccccc3)cc2)NC1=O [Example 1093] ({CH2CO}-Y(Carboxymethyl)[Phe(4-COOH)]DWL[Bip]V[NMeA][dL][Dab][Cha]V[Dap]C[AEEA][Aun]-OH; thioether N-14) | 7.84 |
| CC(C)C[C@@H]1NC(=O)[C@H](Cc2c[nH]c3ccccc23)NC(=O)[C@H](CC(=O)O)NC(=O)[C@H](Cc2ccc(C(=O)O)cc2)NC(=O)[C@H](Cc2ccc(OCC(=O)O)cc2)NC(=O)CSC[C@@H](C(=O)N[C@@H](CN)C(=O)NCCCCCCCCCCC(=O)O)NC(=O)[C@H](CCCNC(N)=O)NC(=O)[C@H](C(C)C)NC(=O)[C@H](CC2CCCCC2)NC(=O)[C@H](CCN)NC(=O)[C@@H](CC(C)C)NC(=O)[C@H](C)N(C)C(=O)[C@H](C(C)C)NC(=O)[C@H](Cc2ccc(-c3ccccc3)cc2)NC1=O [Example 1098] ({CH2CO}-Y(Carboxymethyl)[Phe(4-COOH)]DWL[Bip]V[NMeA][dL][Dab][Cha]V[Cit]C[Dap][Aun]-OH; thioether N-14) | 8.07 |
| CC(C)C[C@@H]1NC(=O)[C@H](Cc2c[nH]c3ccccc23)NC(=O)[C@H](CC(=O)O)NC(=O)[C@H](Cc2ccc(C(=O)O)cc2)NC(=O)[C@H](Cc2ccc(OCC(=O)O)cc2)NC(=O)CSC[C@@H](C(=O)N[C@@H](CCCCN)C(=O)NCCCCCCCCCCC(=O)O)NC(=O)[C@H](CCCNC(N)=O)NC(=O)[C@H](C(C)C)NC(=O)[C@H](CC2CCCCC2)NC(=O)[C@H](CCN)NC(=O)[C@@H](CC(C)C)NC(=O)[C@H](C)N(C)C(=O)[C@H](C(C)C)NC(=O)[C@H](Cc2ccc(-c3ccccc3)cc2)NC1=O [Example 1099] ({CH2CO}-Y(Carboxymethyl)[Phe(4-COOH)]DWL[Bip]V[NMeA][dL][Dab][Cha]V[Cit]CK[Aun]-OH; thioether N-14) | 8.01 |
| CC(C)C[C@@H]1NC(=O)[C@H](Cc2c[nH]c3ccccc23)NC(=O)[C@H](CC(=O)O)NC(=O)[C@H](Cc2ccc(C(=O)O)cc2)NC(=O)[C@H](Cc2ccc(OCC(=O)O)cc2)NC(=O)CSC[C@@H](C(=O)N[C@@H](CCCNC(=N)N)C(=O)NCCCCCCCCCCC(=O)O)NC(=O)[C@H](CCCNC(N)=O)NC(=O)[C@H](C(C)C)NC(=O)[C@H](CC2CCCCC2)NC(=O)[C@H](CCN)NC(=O)[C@@H](CC(C)C)NC(=O)[C@H](C)N(C)C(=O)[C@H](C(C)C)NC(=O)[C@H](Cc2ccc(-c3ccccc3)cc2)NC1=O [Example 1100] ({CH2CO}-Y(Carboxymethyl)[Phe(4-COOH)]DWL[Bip]V[NMeA][dL][Dab][Cha]V[Cit]CR[Aun]-OH; thioether N-14) | 7.70 |
| CC(C)C[C@@H]1NC(=O)[C@H](Cc2c[nH]c3ccccc23)NC(=O)[C@H](CC(=O)O)NC(=O)[C@H](Cc2ccc(C(=O)O)cc2)NC(=O)[C@H](Cc2ccc(OCC(=O)O)cc2)NC(=O)CSC[C@@H](C(=O)NCCOCCOCC(=O)NCCCCCCCCCCC(=O)O)NC(=O)[C@H](CCCNC(N)=O)NC(=O)[C@H](C(C)C)NC(=O)[C@H](CC2CCCCC2)NC(=O)[C@H](CCN)NC(=O)[C@@H](CC(C)C)NC(=O)[C@H](C)N(C)C(=O)[C@H](Cc2ccc(O)cc2)NC(=O)[C@H](Cc2ccc(-c3ccccc3)cc2)NC1=O [Example 1101] ({CH2CO}-Y(Carboxymethyl)[Phe(4-COOH)]DWL[Bip]Y[NMeA][dL][Dab][Cha]V[Cit]C[AEEA][Aun]-OH; thioether N-14) | 7.32 |

Results, then the molecule that gave them:

| pIC50 | Compound |
| --- | --- |
| 7.72 | C#CCOC[C@@H]1NC(=O)[C@H](C(C)C)NC(=O)[C@H](CC2CCCCC2)NC(=O)[C@H](CCN)NC(=O)[C@@H](CC(C)C)NC(=O)[C@H](C)N(C)C(=O)[C@H](Cc2ccc(OCC(=O)O)cc2)NC(=O)[C@H](Cc2ccc(-c3ccccc3)cc2)NC(=O)[C@H](Cc2ccc(OCC(=O)O)cc2)NC(=O)[C@H](Cc2c[nH]c3ccccc23)NC(=O)[C@H](CC(=O)O)NC(=O)[C@H](Cc2ccncc2)NC(=O)[C@H](Cc2ccc(OCC(=O)O)cc2)NC(=O)CSC[C@@H](C(=O)N[C@@H](CCN)C(=O)NCCOCCOCC(=O)NCCCCCCCCCCC(=O)O)NC1=O [Example 1103] ({CH2CO}-Y(Carboxymethyl)[4Pal]DWY(Carboxymethyl)[Bip]Y(Carboxymethyl)[NMeA][dL][Dab][Cha]VS(Propargyl)C[Dab][AEEA][Aun]-OH; thioether N-14) |
| 6.25 | Cc1cccc(C[C@@H]2NC(=O)[C@H](CC(=O)O)NC(=O)[C@H](Cc3ccc(C(=O)O)cc3)NC(=O)[C@H](Cc3ccncc3)NC(=O)CSC[C@@H](C(=O)N[C@@H](CCN)C(=O)NCCOCCOCC(=O)NCCCCCCCCCCCCC(=O)O)NC(=O)[C@H](CCC(=O)O)NC(=O)[C@H](C(C)(C)O)NC(=O)[C@H](CC3CCCCC3)NC(=O)[C@H](CCN)NC(=O)[C@@H](CC(C)C)NC(=O)[C@H](C)N(C)C(=O)[C@H](Cc3ccc(C(=O)O)cc3)NC(=O)[C@H](Cc3ccc(-c4ccccc4)cc3)NC(=O)[C@H](Cc3ccc(C(=O)O)cc3)NC2=O)c1 [Example 1104] ({CH2CO}-[4Pal][Phe(4-COOH)]D[Phe(3-Me)][Phe(4-COOH)][Bip][Phe(4-COOH)][NMeA][dL][Dab][Cha][Val(3-OH)]EC[Dab][AEEA]-{NH(CH2)12COOH}; thioether N-14) |
| 8.14 | Cc1cccc(C[C@@H]2NC(=O)[C@H](CC(=O)O)NC(=O)[C@H](Cc3ccc(C(=O)O)cc3)NC(=O)[C@H](Cc3ccc(OCC(=O)O)cc3)NC(=O)CSC[C@@H](C(=O)N[C@@H](CCN)C(=O)NCCOCCOCC(=O)NCCOCCOCC(=O)NCCCCCCCCCCCCC(=O)O)NC(=O)[C@H](CO)NC(=O)[C@H](C(C)(C)O)NC(=O)[C@H](CC3CCCCC3)NC(=O)[C@H](CCN)NC(=O)[C@@H](CC(C)C)NC(=O)[C@H](C)N(C)C(=O)[C@H](CCC(N)=O)NC(=O)[C@H](Cc3ccc(-c4ccccc4)cc3)NC(=O)[C@H](Cc3ccc(C(=O)O)cc3)NC2=O)c1 [Example 1105] ({CH2CO}-Y(Carboxymethyl)[Phe(4-COOH)]D[Phe(3-Me)][Phe(4-COOH)][Bip]Q[NMeA][dL][Dab][Cha][Val(3-OH)]SC[Dab][AEEA][AEEA]-{NH(CH2)12COOH}; thioether N-14) |
| 7.64 | CC(C)C[C@H]1NC(=O)[C@H](C)N(C)C(=O)[C@H](Cc2ccc(OCC(=O)O)cc2)NC(=O)[C@H](Cc2ccc(-c3ccccc3)cc2)NC(=O)[C@H](Cc2ccc(OCC(=O)O)cc2)NC(=O)[C@H](Cc2c[nH]c3ccccc23)NC(=O)[C@H](CC(=O)O)NC(=O)[C@H](Cc2ccncc2)NC(=O)[C@H](Cc2ccc(OCC(=O)O)cc2)NC(=O)CSC[C@@H](C(=O)N[C@@H](CCN)C(=O)NCCCCCCCCCCC(=O)O)NC(=O)[C@H](CCCn2cc(CN(C)C(=O)c3ccc(F)cc3)nn2)NC(=O)[C@H](C(C)C)NC(=O)[C@H](CC2CCCCC2)NC(=O)[C@H](CCN)NC1=O [Example 1110] |
| 8.04 | CC(C)C[C@@H]1NC(=O)[C@H](Cc2c[nH]c3ccccc23)NC(=O)[C@H](CC(=O)O)NC(=O)[C@H](Cc2ccc(C(=O)O)cc2)NC(=O)[C@H](Cc2ccc(OCC(=O)O)cc2)NC(=O)CSC[C@@H](C(=O)NCCOCCOCC(=O)NCCCCCCCCCCC(=O)O)NC(=O)[C@H](CCCNC(N)=O)NC(=O)[C@H](C(C)(C)O)NC(=O)[C@H](CC2CCCCC2)NC(=O)[C@H](CCN)NC(=O)[C@@H](CC(C)C)NC(=O)[C@H](C)N(C)C(=O)[C@H](C(C)C)NC(=O)[C@H](Cc2ccc(-c3ccccc3)cc2)NC1=O [Example 1111] ({CH2CO}-Y(Carboxymethyl)[Phe(4-COOH)]DWL[Bip]V[NMeA][dL][Dab][Cha][Val(3-OH)][Cit]C[AEEA][Aun]-OH; thioether N-14) |
| 7.33 | CC(C)C[C@@H]1NC(=O)[C@H](Cc2c[nH]c3ccccc23)NC(=O)[C@H](CC(=O)O)NC(=O)[C@H](Cc2ccc(C(=O)O)cc2)NC(=O)[C@H](Cc2ccc(OCC(=O)O)cc2)NC(=O)CSC[C@@H](C(=O)NCCOCCOCC(=O)NCCCCCCCCCCC(=O)O)NC(=O)[C@H](CCC(=O)O)NC(=O)[C@H](C(C)(C)O)NC(=O)[C@H](CC2CCCCC2)NC(=O)[C@H](CCN)NC(=O)[C@@H](CC(C)C)NC(=O)[C@H](C)N(C)C(=O)[C@H](C(C)C)NC(=O)[C@H](Cc2ccc(-c3ccccc3)cc2)NC1=O [Example 1112] ({CH2CO}-Y(Carboxymethyl)[Phe(4-COOH)]DWL[Bip]V[NMeA][dL][Dab][Cha][Val(3-OH)]EC[AEEA][Aun]-OH; thioether N-14) |
